Data as given in PubChem BioAssay (NCI).
“And” between values parts separate entries of the source, which are not always exact repeats. Equal values may be shown once.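 The compound was tested at five concentrations on cells cultured in 96-well plates, with a 48-hour exposure period. Abbreviation: GI50, concentration required for 50% inhibition of growth. TGI: total growth inhibition.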

What was measured:
Test in all cases: inhibition of tumour cell growth, NCI panel, 48 h
[1] = system: SK-MEL-5 melanoma
[2] = system: M14 melanoma
[3] = system: TK-10 renal
[4] = system: RPMI-8226 leukemia
[5] = system: HCC-2998 colon
[6] = system: SNB-75 CNS
[7] = system: SR leukemia
[8] = system: HS 578T breast
[9] = system: HL-60(TB) leukemia
[10] = system: SNB-19 CNS
[11] = system: DU-145 prostate
[12] = system: T-47D breast
[13] = system: EKVX NSCLC
[14] = system: HT29 colon
[15] = system: KM12 colon
[16] = system: SK-OV-3 ovarian
[17] = system: MDA-MB-231 breast
[18] = system: SF-268 CNS
[19] = system: NCI-H226 lung
[20] = system: MOLT-4 leukemia
[21] = system: HOP-92 NSCLC
[22] = system: SF-539 CNS
[23] = system: IGROV1 ovarian
[24] = system: NCI-H460 lung
[25] = system: A498 renal
[26] = system: HOP-62 NSCLC
[27] = system: MALME-3M melanoma
[28] = system: OVCAR-3 ovarian
[29] = system: HCT-116 colon
[30] = system: LOX IMVI melanoma
[31] = system: COLO 205 colon
[32] = system: NCI/ADR-RES ovarian
[33] = system: 786-0 renal
[34] = system: OVCAR-8 ovarian
[35] = system: ACHN renal
[36] = system: CCRF-CEM leukemia
[37] = system: SN12C renal
[38] = system: U251 CNS
[39] = system: MCF7 breast
[40] = system: PC-3 prostate
[41] = system: K-562 leukemia
[42] = system: CAKI-1 renal
[43] = system: SF-295 CNS
[44] = system: SK-MEL-28 melanoma
[45] = system: UO-31 renal
[46] = system: HCT-15 colon
[47] = system: SK-MEL-2 melanoma
[48] = system: UACC-62 melanoma
[49] = system: MDA-N
[50] = system: NCI-H522 lung
[51] = system: SW-620 colon
[52] = system: RXF 393 renal
[53] = system: OVCAR-4 ovarian
[54] = system: OVCAR-5 ovarian
[55] = system: UACC-257 melanoma
[56] = system: A549 NSCLC
[57] = system: BT-549 breast
[58] = system: MDA-MB-435
[59] = system: NCI-H23 lung

SMILES: COc1cc(C(SCc2ccccc2)SCc2ccccc2)ccc1O
- TGI [1]: > 10 µM
- TGI [2]: > 10 µM
- TGI [3]: > 10 µM
- TGI [4]: > 10 µM
- TGI [5]: > 10 µM
- TGI [6]: > 10 µM
- TGI [7]: > 10 µM
- TGI [8]: > 10 µM
- TGI [9]: > 10 µM
- TGI [10]: > 10 µM
- TGI [11]: > 10 µM
- TGI [12]: > 10 µM
- TGI [13]: > 10 µM
- TGI [14]: > 10 µM
- TGI [15]: > 10 µM
- TGI [16]: > 10 µM
- TGI [17]: > 10 µM
- TGI [18]: > 10 µM
- TGI [19]: > 10 µM
- TGI [20]: > 10 µM
- TGI [21]: > 10 µM
- TGI [22]: > 10 µM
- TGI [23]: > 10 µM
- TGI [24]: > 10 µM
- TGI [25]: > 10 µM
- TGI [26]: > 10 µM
- TGI [27]: > 10 µM
- TGI [28]: > 10 µM
- TGI [29]: > 10 µM
- TGI [30]: > 10 µM
- TGI [31]: > 10 µM
- TGI [32]: > 10 µM
- TGI [33]: > 10 µM
- TGI [34]: > 10 µM
- TGI [35]: > 10 µM
- TGI [36]: > 10 µM
- TGI [37]: > 10 µM
- TGI [38]: > 10 µM
- TGI [39]: > 10 µM
- TGI [40]: > 10 µM
- TGI [41]: > 10 µM
- TGI [42]: > 10 µM
- TGI [43]: > 10 µM
- TGI [44]: > 10 µM
- TGI [45]: > 10 µM
- TGI [46]: > 10 µM
- TGI [47]: > 10 µM
- TGI [48]: > 10 µM
- TGI [49]: > 10 µM
- TGI [50]: > 10 µM
- TGI [51]: > 10 µM
- TGI [52]: > 10 µM

SMILES: C[C@@H]1COC(Nc2ccc3ncnc(Nc4ccc(OCc5nccs5)c(Cl)c4)c3c2)=N1
- GI50 [1]: 2.21 µM and 2.98 µM
- TGI [1]: 6.42 µM and 10.6 µM
- GI50 [2]: 3.16 µM and 4.12 µM
- TGI [2]: > 10 µM and 16.9 µM
- GI50 [3]: 0.235 µM and 0.259 µM
- TGI [3]: > 10 µM and 14.8 µM
- GI50 [4]: 3.29 µM and 2.56 µM
- TGI [4]: > 10 µM and 11.1 µM
- GI50 [5]: > 10 µM and 11.9 µM
- TGI [5]: > 10 µM and 39.6 µM
- GI50 [6]: 8.88 µM and 6.83 µM
- TGI [6]: > 10 µM and 21.4 µM
- GI50 [7]: 6.79 µM and 3.97 µM
- TGI [7]: > 10 µM and 21.9 µM
- GI50 [8]: 5.23 µM and 5.24 µM
- TGI [8]: > 10 µM and 48.9 µM
- GI50 [9]: 3.7 µM and 4.2 µM
- TGI [9]: > 100 µM
- GI50 [53]: 5.72 µM and 3.79 µM
- TGI [53]: > 10 µM and 17.3 µM
- GI50 [10]: > 10 µM and 12.4 µM
- TGI [10]: > 10 µM and 32.4 µM
- GI50 [11]: 3.19 µM and 3.26 µM
- TGI [11]: > 10 µM and 19.3 µM
- GI50 [12]: 0.286 µM and 1.03 µM
- TGI [12]: > 10 µM and 12.5 µM
- GI50 [13]: 0.252 µM
- TGI [13]: > 10 µM
- GI50 [14]: 5.04 µM and 4.33 µM
- TGI [14]: > 10 µM and 17.8 µM
- GI50 [54]: > 10 µM and 11.9 µM
- TGI [54]: > 10 µM and 33.3 µM
- GI50 [15]: 4.38 µM and 4.14 µM
- TGI [15]: > 10 µM and 33.8 µM
- GI50 [16]: 0.167 µM and 0.178 µM
- TGI [16]: > 10 µM and 14.4 µM
- GI50 [17]: 6.04 µM and 8.22 µM
- TGI [17]: > 10 µM and 27.2 µM
- GI50 [18]: 6.27 µM and 5.59 µM
- TGI [18]: > 10 µM and 27.7 µM
- GI50 [19]: 4.02 µM and 4.04 µM
- TGI [19]: > 10 µM and 18.2 µM
- GI50 [55]: > 10 µM and 5.59 µM
- TGI [55]: > 10 µM and 25.6 µM
- GI50 [20]: 3.38 µM and 2.87 µM
- TGI [20]: > 10 µM and 8.72 µM
- GI50 [21]: 0.633 µM and 0.782 µM
- TGI [21]: 8.43 µM and 5.68 µM
- GI50 [22]: > 10 µM and 11.9 µM
- TGI [22]: > 10 µM and 29.1 µM
- GI50 [23]: 1.09 µM and 0.544 µM
- TGI [23]: > 10 µM and 8.03 µM
- GI50 [24]: 8.17 µM and 8.76 µM
- TGI [24]: > 10 µM and 26.5 µM
- GI50 [25]: 3.02 µM and 0.342 µM
- TGI [25]: > 10 µM and 6.25 µM
- GI50 [26]: 6.8 µM and 7.18 µM
- TGI [26]: > 10 µM and 20.7 µM
- GI50 [27]: > 10 µM and 4.49 µM
- TGI [27]: > 10 µM and 18.5 µM
- GI50 [28]: 2.07 µM and 2.67 µM
- TGI [28]: > 10 µM and 14.2 µM
- GI50 [29]: 3.94 µM and 4.75 µM
- TGI [29]: > 10 µM and 19 µM
- GI50 [56]: > 10 µM and 5.3 µM
- TGI [56]: > 10 µM and 32.4 µM
- GI50 [30]: 3.73 µM and 4.31 µM
- TGI [30]: > 10 µM and 17 µM
- GI50 [31]: 3.79 µM and 4.86 µM
- TGI [31]: > 10 µM and 17.1 µM
- GI50 [32]: 2.6 µM and 2.64 µM
- TGI [32]: > 10 µM and 12 µM
- GI50 [33]: 8.31 µM and 7.15 µM
- TGI [33]: > 10 µM and 27.9 µM
- GI50 [57]: 3.65 µM and 3.28 µM
- TGI [57]: > 10 µM and 12.4 µM
- GI50 [34]: 2.97 µM and 2.65 µM
- TGI [34]: > 10 µM and 16.8 µM
- GI50 [35]: 0.446 µM and 0.432 µM
- TGI [35]: > 10 µM and 16.6 µM
- GI50 [36]: 3.55 µM and 3.46 µM
- TGI [36]: > 80.9 µM
- GI50 [58]: 6.2 µM and 6.24 µM
- TGI [58]: > 10 µM and 23.1 µM
- GI50 [37]: 6.15 µM and 4.86 µM
- TGI [37]: > 10 µM and 26 µM
- GI50 [38]: 9.24 µM and 8.55 µM
- TGI [38]: > 10 µM and 26.6 µM
- GI50 [39]: 4.97 µM and 5.73 µM
- TGI [39]: > 10 µM and 24 µM
- GI50 [40]: 3.37 µM and 2.98 µM
- TGI [40]: > 10 µM and 13.2 µM
- GI50 [41]: 4.05 µM and 4.08 µM
- TGI [41]: > 10 µM and 33.2 µM
- GI50 [42]: 2.24 µM and 0.685 µM
- TGI [42]: > 10 µM and 15.1 µM
- GI50 [59]: 8.41 µM and 8.45 µM
- TGI [59]: > 10 µM and 37 µM
- GI50 [43]: 4.9 µM and 4.54 µM
- TGI [43]: > 10 µM and 18.6 µM
- GI50 [44]: 4.46 µM and 5.45 µM
- TGI [44]: > 10 µM and 18.9 µM
- GI50 [45]: 0.821 µM and 1.29 µM
- TGI [45]: > 10 µM and 13.5 µM
- GI50 [46]: 4.07 µM and 5.32 µM
- TGI [46]: > 10 µM and 25.6 µM
- GI50 [47]: 4.43 µM and 3.47 µM
- TGI [47]: > 10 µM and 11.1 µM
- GI50 [48]: 6.14 µM and 3.39 µM
- TGI [48]: > 10 µM and 14.9 µM
- GI50 [50]: 0.237 µM and 0.49 µM
- TGI [50]: > 10 µM and 4.65 µM
- GI50 [51]: > 10 µM and 14.6 µM
- TGI [51]: > 10 µM and 59.7 µM
- GI50 [52]: > 10 µM and 6.81 µM
- TGI [52]: > 10 µM and 20.7 µM

SMILES: OCC(O)C(O)C(O)C(/C=N\Nc1ncnc2ccc(Br)cc12)=N/Nc1ncnc2ccc(Br)cc12 (centres undefined)
- TGI [1]: 18 µM
- TGI [2]: 71.2 µM
- TGI [3]: > 100 µM
- TGI [4]: > 100 µM
- TGI [6]: > 100 µM
- TGI [7]: > 100 µM
- TGI [8]: > 100 µM
- TGI [9]: > 100 µM
- TGI [53]: > 100 µM
- TGI [10]: > 100 µM
- TGI [11]: > 100 µM
- TGI [12]: > 100 µM
- TGI [13]: > 100 µM
- TGI [14]: > 100 µM
- TGI [54]: > 100 µM
- TGI [15]: > 100 µM
- TGI [16]: > 100 µM
- TGI [17]: > 100 µM
- TGI [18]: > 100 µM
- TGI [19]: > 100 µM
- TGI [55]: > 100 µM
- TGI [20]: > 100 µM
- TGI [21]: > 100 µM
- TGI [22]: > 100 µM
- TGI [23]: > 100 µM
- TGI [25]: > 100 µM
- TGI [26]: > 100 µM
- TGI [27]: 57 µM
- TGI [28]: > 100 µM
- TGI [29]: > 100 µM
- TGI [56]: > 100 µM
- TGI [30]: > 100 µM
- TGI [31]: > 100 µM
- TGI [33]: > 100 µM
- TGI [34]: > 100 µM
- TGI [35]: > 100 µM
- TGI [58]: > 100 µM
- TGI [37]: > 100 µM
- TGI [38]: > 100 µM
- TGI [39]: > 100 µM
- TGI [40]: > 100 µM
- TGI [41]: > 100 µM
- TGI [42]: > 100 µM
- TGI [43]: > 100 µM
- TGI [44]: > 100 µM
- TGI [45]: > 100 µM
- TGI [47]: > 100 µM
- TGI [49]: > 100 µM
- TGI [50]: 54.9 µM
- TGI [51]: > 100 µM
- TGI [52]: > 100 µM
